Source: PubChem BioAssay (NCI)
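Method: 48-hour compound exposure of cells in 96-well plates, five concentrations, linear interpolation of endpoints. Definition used: TGI = concentration required for complete inhibition of growth.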

How the values were obtained:
Assay in all cases: NCI tumour cell line growth inhibition, 48 h
[1] = system: SNB-19 CNS
[2] = system: HOP-62 NSCLC
[3] = system: SK-MEL-5 melanoma
[4] = system: HS 578T breast
[5] = system: OVCAR-3 ovarian
[6] = system: A549 NSCLC
[7] = system: MOLT-4 leukemia
[8] = system: MDA-MB-435
[9] = system: SK-OV-3 ovarian
[10] = system: OVCAR-4 ovarian
[11] = system: SF-295 CNS
[12] = system: A498 renal
[13] = system: TK-10 renal
[14] = system: LOX IMVI melanoma
[15] = system: ACHN renal
[16] = system: PC-3 prostate
[17] = system: NCI-H460 lung
[18] = system: SW-620 colon
[19] = system: HCC-2998 colon
[20] = system: U251 CNS
[21] = system: NCI-H226 lung
[22] = system: NCI/ADR-RES ovarian
[23] = system: COLO 205 colon
[24] = system: SR leukemia
[25] = system: SK-MEL-2 melanoma
[26] = system: EKVX NSCLC
[27] = system: HOP-92 NSCLC
[28] = system: M14 melanoma
[29] = system: 786-0 renal
[30] = system: BT-549 breast
[31] = system: KM12 colon
[32] = system: RPMI-8226 leukemia
[33] = system: MDA-MB-231 breast
[34] = system: SK-MEL-28 melanoma
[35] = system: DU-145 prostate
[36] = system: SF-268 CNS
[37] = system: UACC-62 melanoma
[38] = system: SNB-75 CNS
[39] = system: MDA-N
[40] = system: OVCAR-8 ovarian
[41] = system: UACC-257 melanoma
[42] = system: HL-60(TB) leukemia
[43] = system: SN12C renal
[44] = system: T-47D breast
[45] = system: SF-539 CNS
[46] = system: IGROV1 ovarian
[47] = system: HCT-15 colon
[48] = system: NCI-H23 lung
[49] = system: HCT-116 colon
[50] = system: K-562 leukemia
[51] = system: CAKI-1 renal
[52] = system: MALME-3M melanoma
[53] = system: RXF 393 renal
[54] = system: NCI-H522 lung
[55] = system: OVCAR-5 ovarian
[56] = system: HT29 colon
[57] = system: MCF7 breast
[58] = system: CCRF-CEM leukemia
[59] = system: UO-31 renal

SMILES: Clc1ccc(-c2nc3ccc(C45CC6CC(CC(C6)C4)C5)cc3[nH]2)cc1
- TGI [1]: > 100 µM
- TGI [2]: > 77 µM
- TGI [3]: 60.4 µM
- TGI [4]: > 100 µM
- TGI [5]: > 100 µM
- TGI [6]: > 100 µM
- TGI [7]: > 100 µM
- TGI [8]: > 100 µM
- TGI [9]: > 100 µM
- TGI [10]: > 100 µM
- TGI [11]: > 100 µM
- TGI [12]: > 100 µM
- TGI [13]: 98.9 µM
- TGI [14]: > 100 µM
- TGI [15]: > 100 µM
- TGI [16]: > 100 µM
- TGI [17]: > 90.5 µM
- TGI [18]: > 100 µM
- TGI [19]: > 77.7 µM
- TGI [20]: > 100 µM
- TGI [21]: > 100 µM
- TGI [22]: > 100 µM
- TGI [23]: 24.3 µM
- TGI [24]: > 100 µM
- TGI [25]: > 100 µM
- TGI [26]: > 100 µM
- TGI [27]: > 95.3 µM
- TGI [28]: > 100 µM
- TGI [29]: > 100 µM
- TGI [30]: 98.3 µM
- TGI [31]: > 100 µM
- TGI [32]: > 100 µM
- TGI [33]: > 100 µM
- TGI [34]: > 100 µM
- TGI [35]: > 100 µM
- TGI [36]: > 100 µM
- TGI [37]: > 100 µM
- TGI [38]: > 100 µM
- TGI [39]: > 100 µM
- TGI [40]: > 100 µM
- TGI [41]: > 65.7 µM
- TGI [42]: > 100 µM
- TGI [43]: > 100 µM
- TGI [44]: > 100 µM
- TGI [45]: > 100 µM
- TGI [46]: > 100 µM
- TGI [47]: > 72.8 µM
- TGI [48]: > 100 µM
- TGI [49]: > 100 µM
- TGI [50]: 0.0221 µM
- TGI [51]: > 100 µM
- TGI [52]: > 100 µM
- TGI [53]: > 100 µM
- TGI [54]: > 100 µM
- TGI [55]: > 100 µM
- TGI [56]: > 100 µM
- TGI [57]: > 100 µM
- TGI [58]: > 100 µM
- TGI [59]: > 100 µM
